Results published in the NIST ThermoML archive (doi:10.1016/j.jct.2017.03.021).
Where “and” joins values, the source holds several entries; their conditions need not be identical. Identical values can stand only once. ± gives the expanded uncertainty stated by the source.

Columns and labels:
[1] = Crystal; for vapor or sublimation pressure: Calculated from knudsen effusion weight loss
[2] = Molar enthalpy of transition or fusion; settings: Crystal; DSC

O=Cc1ccc2c(c1)Cc1ccccc1-2 [9H-fluorene-2-carbaldehyde]
[1]
Settings | Normal melting temperature [°C] | vapor or sublimation pressure
335.16 K | – | 0.000121 ± 2e-05 kPa and 0.00012 ± 2e-05 kPa
337.16 K | – | 0.000147 ± 2.1e-05 kPa and 0.000149 ± 2.1e-05 kPa and 0.000144 ± 2.1e-05 kPa
339.09 K | – | 0.000186 ± 2.1e-05 kPa and 0.000185 ± 2.1e-05 kPa
341.11 K | – | 0.000231 ± 2.2e-05 kPa and 0.000233 ± 2.2e-05 kPa
341.16 K | – | 0.000227 ± 2.2e-05 kPa
343.08 K | – | 0.000288 ± 2.2e-05 kPa and 0.000289 ± 2.2e-05 kPa
343.14 K | – | 0.000288 ± 2.2e-05 kPa
345.09 K | – | 0.00036 ± 2.4e-05 kPa and 0.000361 ± 2.4e-05 kPa and 0.000364 ± 2.4e-05 kPa
347.16 K | – | 0.000444 ± 2.5e-05 kPa and 0.000463 ± 2.6e-05 kPa
349.11 K | – | 0.000553 ± 2.8e-05 kPa and 0.00054 ± 2.8e-05 kPa and 0.000557 ± 2.8e-05 kPa
351.09 K | – | 0.000685 ± 3.1e-05 kPa and 0.000687 ± 3.2e-05 kPa and 0.000681 ± 3.1e-05 kPa
353.1 K | – | 0.000861 ± 3.6e-05 kPa and 0.000847 ± 3.6e-05 kPa and 0.000859 ± 3.6e-05 kPa
355.09 K | – | 0.001048 ± 8.2e-05 kPa and 0.001057 ± 8.3e-05 kPa and 0.001075 ± 8.5e-05 kPa
DTA | 84.5 ± 0.4 | –

Settings | Molar enthalpy of transition or fusion [kcal/mol]
[2] | 5.26 ± 0.143
